This passage reports IC50 results from patent US20260085053A1, “BENZOFURAN DERIVATIVES AS SIK INHIBITORS AND THE USE THEREOF” (BEONE MEDICINES I GMBH, priority 2023, published 2026).

In experiment [1] the target is T1, SIK1 kinase (aa1-303, Thermo Fisher) (Homo sapiens, UniProt P57059).
T1 construct: SIK1 kinase (aa1-303, Thermo Fisher); purchased Thermo Fisher
The experiment is described as follows: Biochemical activities determination for SIK1 protein (TR-FRET). As to conditions: 110 uM ATP, 0.5 μM STK1 substrate. As to the method: 1. Biochemical Activities Determination for SIK1 Protein
(§1) Compounds were tested for inhibition of SIK1 kinase (aa1-303, Thermo Fisher) in assays based on the time-resolved fluorescence-resonance energy transfer (TR-FRET) methodology. The assays were carried out in 384-well low volume white plates in a reaction mixture containing SIK1 kinase, 110 uM ATP, 0.5 μM STK1 substrate and 0-10 μM compound in buffer containing 25 mM Tris, 0.01% Trition X-100, 0.5 mM EGTA, 5 mM MgCl2, 2.5 mM DTT, pH=7.5. The kinase was incubated with compounds for 60 minutes at room temperature and the reaction was initiated by the addition of ATP and STK1 substrate. After reaction at room temperature for 180 minutes, an equal volume of stop/detection solution was added according to the manufacture's instruction (CisBio Bioassays). The stop/detection solution contained STK Antibody-Cryptate and XL665-conjugated streptavidin (Cat: 62ST1PEC, Cisbio) in Detection Buffer (Cat: 62SDBRDF, Cisbio). Plates were sealed and incubated at room temperature for overnight, and the TR-FRET signals (ratio of fluorescence emission at 665 nm over emission at 620 nm with excitation at 337 nm wavelength) were recorded on a PHERAstar FS plate reader (BMG Labtech). Phosphorylation of STK1 substrate led to the binding of STK Antibody-Cryptate to the biotinylated SIK1 substrate, which places fluorescent donor (Eu^3+ crypate) in close proximity to the accepter (Streptavidin-XL665), thus resulting in a high degree of fluorescence resonance energy transfer from the donor fluorophore (at 620 nm) to the acceptor fluorophore (at 665 nm). […] The IC50 for each compound was derived from fitting the data to the four-parameter logistic equation by Dotmatics.
In general terms: TR-FRET usually uses a lanthanide donor and a delayed reading to cut background.

Experiment [2] concerns the target T2, SIK2 kinase (full length, Thermo Fisher) (Homo sapiens, UniProt Q9H0K1).
T2 construct: SIK2 kinase (full length, Thermo Fisher); purchased Thermo Fisher
The experiment is described as follows: Biochemical activities determination for SIK2 protein (TR-FRET). As to conditions: 80 uM ATP, 0.5 μM substrate. As to the method:
2. Biochemical Activities Determination for SIK2 Protein
as §1, with “of SIK2” for “of SIK1”, “kinase (full length,” for “kinase (aa1-303,”, “containing SIK2” for “containing SIK1”, “kinase, 80” for “kinase, 110”, “μM […]” for “μM STK1”, “biotinylated STK1” for “biotinylated SIK1”

In experiment [3] the target is T3, SIK3 kinase (aa59-365, Thermo Fisher) (Homo sapiens, UniProt Q9Y2K2).
T3 construct: SIK3 kinase (aa59-365, Thermo Fisher); purchased Thermo Fisher
Kind of experiment: Biochemical activities determination for SIK3 protein (TR-FRET). Particulars: 125 uM ATP, 0.5 μM STK1 substrate. As to the method: 3. Biochemical Activities Determination for SIK3 Protein
Compounds were tested for inhibition of SIK3 kinase (aa59-365, Thermo Fisher) in assays based on the time-resolved fluorescence-resonance energy transfer (TR-FRET) methodology. The assays were carried out in 384-well low volume white plates in a reaction mixture containing SIK3 kinase, 125 uM ATP, 0.5 μM STK1 substrate and 0-10 μM compound in buffer containing 25 mM Tris, 0.01% Trition X-100, 0.5 mM EGTA, 5 mM MgCl2, 2.5 mM DTT, PH=7.5. The kinase was incubated with compound for 60 minutes at room temperature and the reaction was initiated by the addition of ATP and STK1 substrate. After reaction at room temperature for 180 minutes, an equal volume of stop/detection solution was added according to the manufacture's instruction (CisBio Bioassays). The stop/detection solution contained STK Antibody-Cryptate and XL665-conjugated streptavidin (Cat: 62ST1PEC, Cisbio) in Detection Buffer (Cat: 62SDBRDF, Cisbio). Plates were sealed and incubated at room temperature for overnight, and the TR-FRET signals (ratio of fluorescence emission at 665 nm over emission at 620 nm with excitation at 337 nm wavelength) were recorded on a PHERAstar FS plate reader (BMG Labtech). Phosphorylation of STK1 substrate led to the binding of STK Antibody-Cryptate to the biotinylated STK1 substrate, which places fluorescent donor (Eu^3+ crypate) in close proximity to the accepter (Streptavidin-XL665), thus resulting in a high degree of fluorescence resonance energy transfer from the donor fluorophore (at 620 nm) to the acceptor fluorophore (at 665 nm). […] The IC50 for each compound was derived from fitting the data to the four-parameter logistic equation by Dotmatics.

T2 sequence (Q9H0K1 whole entry): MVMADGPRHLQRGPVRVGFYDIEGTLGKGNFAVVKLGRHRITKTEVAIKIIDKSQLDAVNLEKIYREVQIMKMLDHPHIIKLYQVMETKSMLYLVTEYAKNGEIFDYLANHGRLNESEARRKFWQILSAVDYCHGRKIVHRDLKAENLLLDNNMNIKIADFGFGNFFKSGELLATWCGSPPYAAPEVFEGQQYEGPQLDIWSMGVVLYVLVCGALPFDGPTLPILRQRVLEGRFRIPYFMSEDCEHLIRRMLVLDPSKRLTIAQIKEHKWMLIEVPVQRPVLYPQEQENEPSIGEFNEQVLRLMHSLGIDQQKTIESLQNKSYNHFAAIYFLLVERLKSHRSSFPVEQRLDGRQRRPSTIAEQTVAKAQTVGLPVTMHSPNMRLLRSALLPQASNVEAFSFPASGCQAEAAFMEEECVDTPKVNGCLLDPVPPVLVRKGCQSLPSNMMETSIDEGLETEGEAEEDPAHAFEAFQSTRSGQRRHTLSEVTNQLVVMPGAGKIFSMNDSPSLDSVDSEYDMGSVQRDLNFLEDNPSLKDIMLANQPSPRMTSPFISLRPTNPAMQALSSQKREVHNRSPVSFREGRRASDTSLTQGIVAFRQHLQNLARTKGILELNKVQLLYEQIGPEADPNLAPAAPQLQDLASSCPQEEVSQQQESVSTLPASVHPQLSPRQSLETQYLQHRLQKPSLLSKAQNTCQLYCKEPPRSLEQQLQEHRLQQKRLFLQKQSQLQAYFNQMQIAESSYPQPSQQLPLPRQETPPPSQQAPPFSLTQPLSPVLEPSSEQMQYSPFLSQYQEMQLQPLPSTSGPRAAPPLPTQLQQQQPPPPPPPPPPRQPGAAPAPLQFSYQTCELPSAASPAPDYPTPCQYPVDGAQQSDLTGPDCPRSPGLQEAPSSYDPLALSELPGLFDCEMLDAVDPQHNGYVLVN
T3 sequence (Q9Y2K2 59-365): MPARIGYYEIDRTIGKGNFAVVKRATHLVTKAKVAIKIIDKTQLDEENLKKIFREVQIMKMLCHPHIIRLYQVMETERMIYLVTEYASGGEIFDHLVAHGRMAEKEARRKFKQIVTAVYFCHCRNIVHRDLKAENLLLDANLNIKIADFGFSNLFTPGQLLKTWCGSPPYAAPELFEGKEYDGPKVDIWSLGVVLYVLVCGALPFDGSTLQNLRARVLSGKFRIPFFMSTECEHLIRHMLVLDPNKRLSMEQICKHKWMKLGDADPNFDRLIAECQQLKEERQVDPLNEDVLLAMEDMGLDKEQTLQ
T1 sequence (P57059 1-303): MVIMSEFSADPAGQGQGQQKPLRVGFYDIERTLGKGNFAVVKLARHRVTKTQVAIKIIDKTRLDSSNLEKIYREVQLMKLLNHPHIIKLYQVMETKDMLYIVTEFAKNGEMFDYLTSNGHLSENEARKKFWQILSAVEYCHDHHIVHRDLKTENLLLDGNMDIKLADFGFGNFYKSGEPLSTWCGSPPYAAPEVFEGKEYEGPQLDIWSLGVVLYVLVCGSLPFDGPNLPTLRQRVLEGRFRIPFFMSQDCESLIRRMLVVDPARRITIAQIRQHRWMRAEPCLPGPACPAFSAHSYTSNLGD

A word on the IC50: it is the concentration needed to halve the response being measured. Low readings indicate higher potency, high ones lower potency. As for `CN1CC(n2cc(-c3ccc4c(-c5cc6c(c(OC(F)F)c5)C(=O)N(CC#N)CC6)coc4c3)cn2)C1` [Compound 57, 2-(8-(difluoromethoxy)-6-(6-(1-(1-methylazetidin-3-yl)-1H-pyrazol-4-yl)benzofuran-3-yl)-1-oxo-3,4-dihydroisoquinolin-2 (1H)-yl) acetonitrile], the results for the 50% inhibitory concentration (IC50) in experiment [1], in experiment [2] and in experiment [3] were 405 nM, 2.7 nM and 17 nM, respectively.

`O=C(NC1CC1)c1c(OC(F)F)cc(-c2coc3cc(OCCN4CCCC4)ccc23)cc1O[C@H]1CC[C@H](O)CC1` [Compound 101, N-cyclopropyl-2-(difluoromethoxy)-6-(((1r,4r)-4-hydroxycyclohexyl)oxy)-4-(6-(2-(pyrrolidin-1-yl)ethoxy)benzofuran-3-yl)benzamide]: the results for the IC50 in experiment [1], in experiment [2] and in experiment [3] were more than 10000 nM, 8970 nM and more than 10000 nM, respectively.

Turning to `COc1cc(-c2coc3cc(-c4cn(C)nn4)ccc23)cc2c1C(=O)N(CC(F)(F)F)CC2` [Compound 17, 8-methoxy-6-(6-(1-methyl-1H-1,2,3-triazol-4-yl)benzofuran-3-yl)-2-(2,2,2-trifluoroethyl)-3,4-dihydroisoquinolin-1 (2H)-one], the IC50 in experiment [1] was found to be 2310 nM; in experiment [2], 28 nM; in experiment [3], 79 nM.

On to `CN1CCC[C@H]1COc1cc(-c2coc3cc(OCCN4CCCC4)ccc23)cc(OC(F)F)c1C(=O)NC1CC1` [Compound 113, (S)—N-cyclopropyl-2-(difluoromethoxy)-6-((1-methylpyrrolidin-2-yl)methoxy)-4-(6-(2-(pyrrolidin-1-yl)ethoxy)benzofuran-3-yl)benzamide], for which the IC50 in experiment [1] is more than 10000 nM; in experiment [2] it was 7320 nM; in experiment [3], more than 10000 nM.

Turning to `COc1cc(-c2coc3cc(OCCN4CCCC4)ccc23)cc(OC(F)F)c1C(=O)N[C@@H]1C[C@@H]1F` [Compound 67, 2-(difluoromethoxy)-N-((1R,2S)-2-fluorocyclopropyl)-6-methoxy-4-(6-(2-(pyrrolidin-1-yl)ethoxy)benzofuran-3-yl)benzamide], the concentration for half-maximal inhibition (IC50) came out at 2450 nM in experiment [1], 23 nM in experiment [2] and 79 nM in experiment [3].

For `COc1cc(-c2coc3cc(-c4cnn(C)c4)ccc23)cc(OC)c1-c1nnc(C2CC2)o1` [Compound 35, 2-cyclopropyl-5-(2,6-dimethoxy-4-(6-(1-methyl-1H-pyrazol-4-yl)benzofuran-3-yl)phenyl)-1,3,4-oxadiazole], the results for the IC50 in experiment [1], in experiment [2] and in experiment [3] were 2080 nM, 132 nM and 255 nM, respectively.

Take `Cn1cc(-c2ccc3c(-c4cc5c(c(OC(F)F)c4)C(=O)N(CC#N)CC5)coc3c2)cn1` [Compound 21, 2-(8-(difluoromethoxy)-6-(6-(1-methyl-1H-pyrazol-4-yl)benzofuran-3-yl)-1-oxo-3,4-dihydroisoquinolin-2 (1H)-yl) acetonitrile]: the IC50 in experiment [1] worked out at 289 nM; in experiment [2], 11 nM; in experiment [3], 15 nM.

Turning to `COc1cc(-c2coc3cc(-c4cnn(C5CCOCC5)c4)ccc23)cc2c1C(=O)N(CC(F)(F)F)CC2` [Compound 50, 8-methoxy-6-(6-(1-(tetrahydro-2H-pyran-4-yl)-1H-pyrazol-4-yl)benzofuran-3-yl)-2-(2,2,2-trifluoroethyl)-3,4-dihydroisoquinolin-1 (2H)-one], the IC50 in experiment [1] was 347 nM; in experiment [2] it was 17 nM; in experiment [3], 34 nM.

For the compound `COc1cc(-c2coc3cc(-c4cn(C)nc4F)ccc23)cc2c1C(=O)N(CC(F)(F)F)CC2` [Compound 22, 6-(6-(3-fluoro-1-methyl-1H-pyrazol-4-yl)benzofuran-3-yl)-8-methoxy-2-(2,2,2-trifluoroethyl)-3,4-dihydroisoquinolin-1 (2H)-one], the concentration for half-maximal inhibition (IC50) was 5920 nM in experiment [1], 79 nM in experiment [2] and 127 nM in experiment [3].

As to `COc1cc(-c2coc3cc(OCCN4CCC(C)(C)C4)ccc23)cc(OC(F)F)c1C(=O)N[C@@H]1C[C@@H]1F` [Compound 93, 2-(difluoromethoxy)-4-(6-(2-(3,3-dimethylpyrrolidin-1-yl)ethoxy)benzofuran-3-yl)-N-((1R,2S)-2-fluorocyclopropyl)-6-methoxybenzamide], the IC50 in experiment [1] came to 2530 nM; in experiment [2] it was 30 nM; in experiment [3] it was 60 nM.

Regarding `COc1cc(-c2coc3cc(-c4cnn(C)c4)cc(F)c23)cc2c1C(=O)N(CC(F)(F)F)CC2` [Example 11, 6-(4-fluoro-6-(1-methyl-1H-pyrazol-4-yl)benzofuran-3-yl)-8-methoxy-2-(2,2,2-trifluoroethyl)-3,4-dihydroisoquinolin-1 (2H)-one], the figures for the IC50 in experiment [1], in experiment [2] and in experiment [3] were 1550 nM, 49 nM and 155 nM, respectively.

Consider `CC(C)(O)COc1cc(-c2coc3cc(OCCN4CCCC4)ccc23)cc(OC(F)F)c1C(=O)NC1CC1` [Compound 108, N-cyclopropyl-2-(difluoromethoxy)-6-(2-hydroxy-2-methylpropoxy)-4-(6-(2-(pyrrolidin-1-yl)ethoxy)benzofuran-3-yl)benzamide], for which the concentration for half-maximal inhibition (IC50) in experiment [1] is more than 10000 nM; in experiment [2] it was 2780 nM; in experiment [3], more than 10000 nM.

Take `O=C1c2c(cc(-c3coc4cc(-c5cnn(C6CCNCC6)c5)ccc34)cc2OC(F)F)CCN1CC(F)(F)F` [Compound 43, 8-(difluoromethoxy)-6-(6-(1-(piperidin-4-yl)-1H-pyrazol-4-yl)benzofuran-3-yl)-2-(2,2,2-trifluoroethyl)-3,4-dihydroisoquinolin-1 (2H)-one]: the IC50 in experiment [1] amounted to 676 nM; in experiment [2], 8 nM; in experiment [3], 57 nM.

With `COc1cc(-c2coc3cc(-c4ccc(C)nn4)ccc23)cc2c1C(=O)N(CC(F)(F)F)CC2` [Example 8, 8-methoxy-6-(6-(6-methylpyridazin-3-yl)benzofuran-3-yl)-2-(2,2,2-trifluoroethyl)-3,4-dihydroisoquinolin-1 (2H)-one], the IC50 in experiment [1] is more than 10000 nM; in experiment [2], 197 nM; in experiment [3] it was 304 nM.
